# Measurements reported in PubChem BioAssay AID1996.
# Details: buffer; pH 7.4; 200.0 µM
row,solubility kinetic [µg/mL],Structure (SMILES)
1,27.2,Cc1cccc(NC(=O)C2CCCN(c3cnccn3)C2)c1 (stereo unspecified)
2,1.1,Cc1onc(-c2ccccc2)c1C(=O)NCc1cccc(Cl)c1
3,< 0.3,Cc1cc2ncc(-c3ccccc3)nc2cc1C
4,> 39.5,Cc1ccc(OCC(=O)NCC2CCCO2)c(C)c1 (stereo unspecified)
5,8.9,O=C(Cn1c(=O)oc2cccnc21)Nc1ccc(C(F)(F)F)cc1
6,36.3,Cc1ccc(CNCCCSc2ncccn2)cc1
7,5,CCOc1ccc(OCCC(=O)Nc2ccc(F)cc2C)cc1
8,2.3,O=C(Nc1ccc2c(c1)C(=O)OC2)c1ccc(F)cc1F
9,24.8,Cc1cc(C)cc(NCc2ccncc2)c1
10,> 42.2,C/C(=N\n1c(C)nc2ccccc2c1=O)c1ccc(C)o1
11,15.1,COc1cccc(-c2ccc3c(N)c(C(=O)NC4CC4)sc3n2)c1
12,< 0.1,Cc1ccc2c(=O)[nH]c(Nc3nc(C)cc(-c4ccccc4)n3)nc2c1
13,> 44.5,CC(Sc1nccn1C)C(=O)Nc1ccc(Cl)cn1 (stereo unspecified)
14,< 0.3,Cc1ccc2sc(N(CCN(C)C)C(=O)/C=C/c3cccs3)nc2c1C.Cl
15,49,CCC(Oc1ccccc1F)C(=O)Nc1ccc2c(c1)n(C)c(=O)n2C (stereo unspecified)
16,> 42.3,COc1ccc(F)cc1S(=O)(=O)Nc1ccncc1
17,36,Cc1ccc(C)c(C(C)NC(=O)c2ccncc2)c1 (stereo unspecified)
18,6.4,Cc1ccc(NC(=O)c2ccccc2F)c(NC(=O)c2ccccc2F)c1
19,12,CC(C)c1ccc(NC(=O)C2CC2c2ccccc2)cc1 (stereo unspecified)
20,> 50.5,CC(=O)NCCc1nc2cc(NC(=O)c3ccccc3)ccc2n1C
21,3.8,COC(=O)c1cccc(NC(=O)c2cccc([N+](=O)[O-])c2)c1

row,solubility kinetic [µg/mL],Structure (SMILES)
1,> 53.6,COC(=O)C(Cc1ccc(O)cc1)NC(=O)c1ccc2c(c1)OCCO2 (stereo unspecified)
2,< 0.4,C=CCn1c(=O)c(C(=O)Nc2ccc(C)cc2)c(O)c2ccccc21
3,35.5,O=C(NCc1ccccc1)c1ccc(F)c(F)c1
4,> 47.9,COc1ccc(CCNC(=O)CCc2ccsc2)cc1OC
5,> 43.6,Cc1cc(OC(C)C(=O)Nc2ccncc2)ccc1Cl (stereo unspecified)
6,> 42.3,Cc1ccc[n+](CC(=O)c2ccc(Cl)cc2)c1.[Cl-]
7,1.3,CCC1CN(C(=O)NCc2ccc(F)cc2)c2cc(Cl)ccc2O1 (stereo unspecified)
8,> 43.6,O=C(NCc1ccc2c(c1)OCO2)c1ccc(Cl)nc1
9,> 42.5,CN(C)/C=N/NC(=O)C1Cc2c(ccc3ccccc23)O1 (stereo unspecified)
10,> 40.8,Cc1ccc(NC(=O)CNC(=O)c2ccc(C)o2)cc1
11,> 44,CCC(=O)NC(Cc1ccccc1)c1nc2ccccc2[nH]1 (stereo unspecified)
12,2,Cc1nc2ccccc2nc1OCc1cccc([N+](=O)[O-])c1
13,0.4,CCC(=O)Nc1nc(-c2ccccc2)nc(SC)c1C(C)=O
14,3.9,Cc1nc2ccccn2c1C(=O)CSc1cccc(Cl)c1
15,3,CCOc1ccc(NC(=O)CCC(=O)c2ccc(OC)cc2)cc1
16,4.9,COc1ccc(NC(=O)c2ccco2)cc1NC(=O)c1ccccc1
17,> 43,O=C(NCCO)N1c2ccccc2Sc2ccccc21
18,6.4,Cc1ccc(NS(=O)(=O)c2ccc(C(=O)NC3CCN(Cc4ccccc4)CC3)cc2)cc1.Cl
19,> 43.3,CC(=O)c1ccc(NC(=O)C2CC(=O)N(C(C)C)C2)cc1 (stereo unspecified)
20,> 34.7,Cc1cccc(Nc2cc(=O)n(C)c(=O)[nH]2)c1

# Second part, the compound before the results:
row,Structure (SMILES),solubility kinetic [µg/mL]
1,OC1(c2ccc3c(c2)OCO3)CCN(Cc2ccc(F)cc2)CC1,> 49.4
2,CCCNC(=O)CSc1nc2ccccc2c(=O)n1CCC,27.1
3,CCN(CC)c1ccc(CNc2ccc3c(c2)ncn3CC)cc1,21.9
4,Cc1cc(C(=O)OCC(=O)Nc2ccc(F)cc2)c(C)n1C1CC1,6.2
5,S=C(NCCc1ccccc1)Nc1c(Cl)cccc1Cl,44.3
6,CC(=O)N1CCN(C(=O)c2ccc3c(c2)OCCO3)CC1,> 43.5
7,OCC1(CCOc2ccccc2)CCN(Cc2ccncc2)CC1,39
8,CN(CCN1CCOCC1)Cc1nc(-c2ccc3c(c2)OCO3)no1,48.5
9,CSc1ccccc1NC(=O)COC(=O)CCC(=O)c1ccc(F)cc1,> 56.3
10,CCOc1ccc(NC(=O)CN2CCc3ccccc3C2)cc1,34
11,CC(NC(=O)c1cccs1)C1CCCO1 (stereo unspecified),> 33.8
12,O=C(CN1CCCCCC1)Nc1cc(C(F)(F)F)ccc1Cl,< 0.4
13,CCOC(=O)C1C(c2ccccc2O)NC(=O)NC1(O)C(F)(F)F (stereo unspecified),> 52.2
14,O=C(CSc1ncnc2sccc12)Nc1ccccc1F,5.9
15,CC(C)=CC(=O)OCC(=O)Nc1ccc(SC(F)F)cc1,10.6
16,CCOc1nc(Nc2ccc(OC)cc2)nc(N2CCOCC2)n1,4.8
17,CC1CC1C(=O)OCC(=O)c1c(N)n(C)c(=O)n(C)c1=O (stereo unspecified),> 44.3
18,Nc1nc(NCC(=O)O)nc(NC2CCCCC2)c1[N+](=O)[O-],> 46.5
19,CCCCS(=O)(=O)N1CCC(C(=O)Oc2ccc(Cl)cc2)CC1,1.7
20,COc1ccccc1NC(=O)COC(=O)c1ccc2ccccc2n1,13.1
21,CCN1c2ccccc2S(=O)(=O)c2ccccc21,15.6
22,CNC(=S)N1CCC(Cc2ccccc2)CC1,36.9
23,O=C(O)CC(CC(=O)Nc1ccccc1C(=O)O)c1ccccc1 (stereo unspecified),> 49.1
24,O=S(=O)(NCCCN1CCOCC1)c1ccc2ccccc2c1,> 50.2
25,COC(=O)c1ccc(S(=O)(=O)NCc2ccco2)n1C,44.3
26,O=C(Cn1c(=O)cnc2ccccc21)Nc1cc(Cl)ccc1N1CCOCC1,51.6
27,Nc1nc(-c2ccc(Oc3ccccc3)cc2)c(CC(=O)O)s1,> 49

row,Structure (SMILES),solubility kinetic [µg/mL]
1,CC(C)C1Oc2ccccc2N(CC(=O)NC2CCCCC2)C1=O (stereo unspecified),> 49.6
2,CC1CCCC(C)N1C(=O)COC(=O)COc1ccc(C#N)cc1 (stereo unspecified),> 49.6
3,O=C(O)Cc1c[nH]c2ccc(O)cc12,> 28.7
4,O=C(NCc1ccco1)/C(=C/c1ccco1)NC(=O)c1ccccc1,41.5
5,O=C(Nc1ccc(Br)cc1)N1CCCC(O)C1 (stereo unspecified),> 44.9
6,COc1ccc(S(=O)(=O)N2CCc3ccccc3C2)cc1C(=O)O,48.4
7,CC(C)Cc1ccc(/C=C/C(=O)N2CCOCC2)cc1,> 41
8,O=C(Cc1ccccc1)N1CCN(c2ccccc2F)CC1,> 44.8
9,O=c1ccc2cc(S(=O)(=O)Nc3ccccc3F)ccc2o1,> 47.9
10,O=C(CSc1ccccc1)NCCc1ccc(F)cc1,34.9
11,CC1(C)CC(=O)C(CC(=O)NC2CCCc3ccccc32)C(=O)C1 (stereo unspecified),> 49.1
12,CCc1cc2c(=O)n(CC(=O)NC3CCCCC3)cnc2s1,20.5
13,O=C(CN1C(=O)COc2ccccc21)NC1CCCC1,32.9
14,CSc1nc2nc3c(cc2c(=O)n1-c1ccccc1C)CCCC3,37.9
15,CCN(C(=O)c1cc(Cl)ccc1Cl)C1CCS(=O)(=O)C1 (stereo unspecified),> 50.4
16,C=CCn1c(NC(=O)c2ccco2)nc2ccccc21,21.2
17,O=C(NC1CC(=O)N(c2ccccc2)C1)C1CC1 (stereo unspecified),> 36.6
18,Cc1ccc(S(=O)(=O)N2CC(=NN=C(N)N)C2)cc1,> 42.2
19,NC(=O)COc1cc2oc(=O)c3c(c2cc1Cl)CCCC3,7.1
20,O=c1[nH]c(CSc2ncn[nH]2)nc2ccccc12,> 38.9
21,CCOc1ccc(-c2n[nH]c(=S)o2)cc1,> 33.3
22,Oc1ccc(Cl)cc1CNc1nccs1,13.9
23,COc1ccc(S(=O)(=O)N(C)CC(=O)N2CCCC2)cc1,> 46.9
24,COc1ccc(CNC(=O)N2CCc3ccccc3C2)cc1Cl,30.4
25,O=CNCCc1nc2ccccc2n1CCc1ccccc1,41
26,CN1CCCN(C(=O)CNC(=O)c2ccccc2F)CC1,> 44
27,O=C(COC(=O)CCC(=O)c1ccc(Cl)cc1)NCCc1ccccc1,5.7

row,Structure (SMILES),solubility kinetic [µg/mL]
1,CCc1nc2c(c(=O)[nH]1)C(CC)(CC)Cc1ccccc1-2,0.7
2,COc1cccc(-c2nc(-c3ccccc3)c(-c3ccccc3)[nH]2)c1OCC(=O)O,> 60.1
3,COCCNC(=S)Nc1ccc([N+](=O)[O-])cc1C,> 40.4
4,COCCOC(=O)c1sc2nc[nH]c(=O)c2c1C,> 40.2
5,O=C(COc1ccc(S(=O)(=O)N2CCCC2)cc1)N1CCCCC1,47.6
6,O=C1CSC(c2ccccc2)N1c1ccc(F)cc1F (stereo unspecified),38
7,Cc1ccccc1OCC1Cn2c(nc3c2c(=O)n(C)c(=O)n3C)O1 (stereo unspecified),> 51.4
8,O=C(O)c1ccc([N+](=O)[O-])c(CS(=O)(=O)c2ccccc2)c1,> 48.2
9,COc1ccc(OC)c(/C=C2\SC(N3CCCCC3)=NC2=O)c1,5.4
10,CC1(c2ccccc2Br)NC(=O)N(CC(=O)N2CCc3ccccc3C2)C1=O (stereo unspecified),8.1
11,COc1cccc(CNC(=O)CCSCc2ccccc2F)c1,41.8
12,CCOC(=O)c1cnc2[nH]c3ccccc3n2c1=O,23
13,CC1CCN(C(=S)NC(=O)c2ccc(F)cc2)CC1,> 42.1
14,O=C(C1CC1)N1CCN(c2ccc(O)cc2)CC1,> 36.9
15,N#CCCN(Cc1cccs1)C(=O)Nc1ccc(F)cc1,> 45.5
16,O=S(=O)(Nc1cccc(CCc2ccccn2)c1)c1cc(Cl)ccc1Cl,9.2
17,N#Cc1ccccc1NC(=O)CN1CCN(c2ccccn2)CC1,> 48.2
18,O=C(OCN1C(=O)c2ccccc2C1=O)c1cccc(OC(F)F)c1,0.9
19,CC1CCCN(CC(O)COCc2ccc3c(c2)OCO3)C1.Cl (stereo unspecified),39
20,CC1(C)CC(C(N)=S)CCO1 (stereo unspecified),23.5
21,Clc1ccc(OCC#CCN2CCOCC2)cc1.O=C(O)C(=O)O,50.3
22,COc1ccc(CC(=O)N2CCc3ccccc3C2)cc1,39.6
23,Nc1c(N(CCO)C(=O)C2CCCC2)c(=O)[nH]c(=O)n1Cc1ccccc1,> 55.9
24,O=C(CCN1C(=O)S/C(=C\c2ccccc2)C1=O)N1CCCCC1,20.6
25,CC1=NN(c2ccccc2)C(=O)C1/C=C1\NC(=S)NC1=O (stereo unspecified),> 45.1
26,Cc1nnc(NC(=O)C2CCCC2)s1,> 31.7
